Activity calls are given as the source filed them. The calls are words filed in the database; no cut-off is given here.

Chain of Dipeptidyl peptidase 4 (P22411 whole entry): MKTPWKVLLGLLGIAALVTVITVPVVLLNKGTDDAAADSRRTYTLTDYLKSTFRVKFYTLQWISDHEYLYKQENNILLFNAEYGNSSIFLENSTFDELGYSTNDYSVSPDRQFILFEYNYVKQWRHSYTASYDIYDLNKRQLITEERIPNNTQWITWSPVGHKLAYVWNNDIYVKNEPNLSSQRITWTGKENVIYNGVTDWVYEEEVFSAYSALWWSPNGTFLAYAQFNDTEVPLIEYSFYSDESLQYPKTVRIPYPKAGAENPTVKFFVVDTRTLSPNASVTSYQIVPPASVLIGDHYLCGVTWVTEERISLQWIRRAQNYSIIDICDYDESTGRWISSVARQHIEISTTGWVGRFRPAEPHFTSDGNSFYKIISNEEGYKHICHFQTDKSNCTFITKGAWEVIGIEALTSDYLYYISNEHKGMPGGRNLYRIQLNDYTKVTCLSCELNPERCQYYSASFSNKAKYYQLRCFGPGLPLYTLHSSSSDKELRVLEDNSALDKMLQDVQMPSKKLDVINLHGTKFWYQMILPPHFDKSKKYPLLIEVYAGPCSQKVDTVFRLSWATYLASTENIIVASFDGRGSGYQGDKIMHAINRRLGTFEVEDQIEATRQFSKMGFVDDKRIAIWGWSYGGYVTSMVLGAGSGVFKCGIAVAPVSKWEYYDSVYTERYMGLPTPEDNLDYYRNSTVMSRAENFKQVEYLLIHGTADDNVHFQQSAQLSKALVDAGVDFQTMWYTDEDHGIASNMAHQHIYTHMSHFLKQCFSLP

One assay addresses Dipeptidyl peptidase 4 (Sus scrofa, UniProt P22411). Put plainly: Inhibition of pig kidney DPP4 by spectrophotometric method.
In turn, `CC1CCC(C(=O)N2CCC(N(N)CC(=O)N3CSC[C@H]3C#N)CC2)CC1` (some centres not stated) displayed an IC50 of 866 nM.
On the same count and under the same terms, as for `Cc1ccc(S(=O)(=O)N2CCC(N(N)CC(=O)N3CSC[C@H]3C#N)CC2)cc1`, the figure is 2700 nM; as for `CS(=O)(=O)N1CCC(N(N)CC(=O)N2CSC[C@H]2C#N)CC1`, 1460 nM.
Still for that read-out and setting: as for `N#C[C@@H]1CSCN1C(=O)CN(N)C1CCN(CC(=O)Nc2ncc(Br)s2)CC1`, the figure is 226 nM; as for `N#C[C@@H]1CSCN1C(=O)CN(N)C1CCN(CC(=O)NC2CC2)CC1` [listing 1 of 2 here], 236 nM.
The same measure, in the same setting: as for `COc1ccc(S(=O)(=O)N2CCC(N(N)CC(=O)N3CSC[C@H]3C#N)CC2)cc1`, the figure is 6680 nM.
In the case of `N#C[C@@H]1CCCN1C(=O)CN(N)C1CCN(CC(=O)Nc2ccc(Cl)cn2)CC1`, the IC50 worked out at 3700 nM.
Same read-out and setting: as for `N#C[C@@H]1CSCN1C(=O)CN(N)C1CCN(C(=O)CN2CCOCC2)CC1`, the figure is 830 nM; as for `N#C[C@@H]1CSCN1C(=O)CN(N)C1CCN(Cc2cccnc2)CC1`, 4770 nM.
For `N#C[C@@H]1CSCN1C(=O)CN(N)C1CCN(CC(=O)Nc2nc3ccccc3s2)CC1`, the midpoint of inhibition, the IC50, lay at 134 nM.
On the same count and under the same terms, as for `CC(C)(C)C(=O)N1CCC(N(N)CC(=O)N2CSC[C@H]2C#N)CC1`, the figure is 4150 nM; as for `N#C[C@@H]1CSCN1C(=O)CN(N)C1CCN(CC(=O)NC23CC4CC(CC(C4)C2)C3)CC1`, 523 nM.
On the same count and under the same terms, for `N#C[C@@H]1CSCN1C(=O)CN(N)C1CCN(S(=O)(=O)c2ccc(Cl)cc2)CC1` the value was 1450 nM; for `N#Cc1ccc(NC(=O)CN2CCC(N(N)CC(=O)N3CSC[C@H]3C#N)CC2)nc1` [listing 1 of 2 here], 110 nM.
Still for that read-out and setting: for `N#C[C@@H]1CSCN1C(=O)CN(N)C1CCN(Cc2ccc(F)cc2)CC1` the value was 2230 nM; for `COC(=O)NN(CC(=O)N1CSC[C@H]1C#N)C1CCN(CC(=O)Nc2ccc(Cl)cn2)CC1`, 38400 nM.
On to `N#C[C@@H]1CSCN1C(=O)CN(N)C1CCN(CC(=O)Nc2ccc(S(N)(=O)=O)cc2)CC1` [listing 1 of 2 here], for which the IC50 worked out at 90 nM.
The same measure, in the same setting: as for `CC(C)OCCCNC(=O)CN1CCC(N(N)CC(=O)N2CSC[C@H]2C#N)CC1`, the figure is 468 nM; as for `N#C[C@@H]1CSCN1C(=O)CN(N)C1CCN(CC(=O)Nc2ccc3c(c2)OCO3)CC1`, 240 nM; as for `N#C[C@@H]1CSCN1C(=O)CN(N)C1CCN(COc2ccccc2)CC1`, 638 nM.
Same read-out and setting: as for `N#C[C@@H]1CSCN1C(=O)CN(N)C1CCN(CC(=O)Nc2ncccn2)CC1`, the figure is 143 nM; as for `N#C[C@@H]1CSCN1C(=O)CN(N)C1CCNCC1`, 12100 nM; as for `N#Cc1ccc(NC(=O)CN2CCC(N(N)CC(=O)N3CSC[C@H]3C#N)CC2)nc1` [listing 2 of 2 here], 130 nM.
On the same count and under the same terms, as for `N#C[C@@H]1CSCN1C(=O)CN(N)C1CCN(C(=O)c2cccc(Cl)c2Cl)CC1`, the figure is 1790 nM; as for `N#C[C@@H]1CSCN1C(=O)CN(N)C1CCN(CC(=O)Nc2ccc(C(F)(F)F)cc2)CC1`, 308 nM; as for `N#C[C@@H]1CSCN1C(=O)CN(N)C1CCN(CC(=O)NC2CCCCC2)CC1`, 506 nM.
On to `N#C[C@@H]1CSCN1C(=O)CN(N)C1CCN(Cc2ccc([N+](=O)[O-])cc2)CC1`, for which it took 698 nM to reach half-maximal inhibition (IC50).
The same measure, in the same setting: as for `CCNN(CC(=O)N1CSC[C@H]1C#N)C1CCN(S(C)(=O)=O)CC1`, the figure is 3760 nM; as for `N#C[C@@H]1CSCN1C(=O)CN(N)C1CCN(CC(=O)Nc2ccc(F)c(Cl)c2)CC1`, 359 nM.
On the same count and under the same terms, for `Cc1nc(NC(=O)CN2CCC(N(N)CC(=O)N3CSC[C@H]3C#N)CC2)sc1C` the value was 185 nM; for `N#C[C@@H]1CSCN1C(=O)CN(N)C1CCN(CC(=O)NCc2ccccc2F)CC1`, 510 nM.
As for `N#C[C@@H]1CSCN1C(=O)CN(N)C1CCN(CC(=O)NC2CC2)CC1` [listing 2 of 2 here], inhibition was half-maximal at 217 nM (IC50).
Still for that read-out and setting: for `N#Cc1ccc(NC(=O)CN2CCC(N(N)CC(=O)N3CSC[C@H]3C#N)CC2)cc1` the value was 200 nM; for `CC(=O)N1CCC(N(N)CC(=O)N2CSC[C@H]2C#N)CC1`, 1530 nM; for `N#C[C@@H]1CSCN1C(=O)CN(N)C1CCN(C(=O)N2CCOCC2)CC1`, 790 nM.
Same read-out and setting: for `N#C[C@@H]1CSCN1C(=O)CN(N)C1CCN(CC(=O)Nc2ccc(S(N)(=O)=O)cc2)CC1` [listing 2 of 2 here] the value was 98 nM; for `CCNN(CC(=O)N1CSC[C@H]1C#N)C1CCN(CC(=O)Nc2ccc(Cl)cn2)CC1`, 490 nM.
Still for that read-out and setting: for `N#C[C@@H]1CSCN1C(=O)CN(N)C1CCN(Cc2ccccc2)CC1` the value was 1630 nM; for `CN(CCN)C(=O)N1CCC(N(N)CC(=O)N2CSC[C@H]2C#N)CC1`, 1230 nM.
`COCCNC(=O)CN1CCC(N(N)CC(=O)N2CSC[C@H]2C#N)CC1` registered an IC50 of 1030 nM.
On the same count and under the same terms, as for `N#Cc1cc(CN2CCC(N(N)CC(=O)N3CSC[C@H]3C#N)CC2)ccc1-c1ccccc1`, the figure is 1020 nM.

For the next assay, the system named is Rattus norvegicus. Put plainly: Inhibition of DPP4 in n5-STZ rat at 22 mg/kg, po administered as single dose after 4 hrs relative to vehicle treated control.
Consider `N#C[C@@H]1CSCN1C(=O)CN(N)C1CCN(CC(=O)Nc2ccc(Cl)cn2)CC1`, for which the inhibition in vivo at 22 mg/kg was determined as 39.8%.

A further assay has as its system Rattus norvegicus. Put plainly: Antidiabetic activity in n5-STZ rat diabetic model assessed as decrease in glucose excursion at 44 mg/kg, po administered as single dose by OGTT.
With `N#C[C@@H]1CSCN1C(=O)CN(N)C1CCN(CC(=O)Nc2ccc(Cl)cn2)CC1`, the result was Active.

The next assay deals with Rattus norvegicus. Put plainly: Antidiabetic activity in n5-STZ rat diabetic model assessed as decrease in glucose AUC at 44 mg/kg, po administered as single dose by OGTT.
As for `N#C[C@@H]1CSCN1C(=O)CN(N)C1CCN(CC(=O)Nc2ccc(Cl)cn2)CC1`, the outcome was Active.

The subject of a further assay is Rattus norvegicus. The assay is described as follows: Antidiabetic activity in ZDF rat diabetic model assessed as increase in insulin release at 44 mg/kg, po administered BID for 6 weeks by sandwich ELISA. The arrangement: dose 44 mg/kg. The format is functional, organism-based.
As to `N#C[C@@H]1CSCN1C(=O)CN(N)C1CCN(CC(=O)Nc2ccc(Cl)cn2)CC1`, the outcome was Active.

In another assay the test system is Rattus norvegicus. The assay is described as follows: Antidiabetic activity in n5-STZ rat diabetic model assessed as stimulation of insulin response at 44 mg/kg, po administered as single dose by sandwich ELISA.
For the compound `N#C[C@@H]1CSCN1C(=O)CN(N)C1CCN(CC(=O)Nc2ccc(Cl)cn2)CC1`, the result was Active.

The subject of another assay is Rattus norvegicus. The assay is described as follows: Antidiabetic activity in ZDF rat diabetic model assessed as decrease in glucose excursion at 44 mg/kg, po administered BID for 6 weeks by OGTT. The format is functional, organism-based. The arrangement: dose 44 mg/kg.
Regarding `N#C[C@@H]1CSCN1C(=O)CN(N)C1CCN(CC(=O)Nc2ccc(Cl)cn2)CC1`, the result was Active.

The values above are taken from ChEMBL document CHEMBL1153816, “Novel N-substituted 4-hydrazino piperidine derivative as a dipeptidyl peptidase IV inhibitor” (Bioorg Med Chem Lett, 2009).
